Test results from PubChem BioAssay AID292 (DTP/NCI, 2004).
Values joined by “and” are separate entries in the source; they are usually repeats but may differ in a detail not shown here. Equal values may be shown once. Inconclusive results and toxic doses are left out.

Tested on: B6C3F1 mice, ip Sarcoma M5076, median survival T/C
Experiment: NCI In Vivo Anticancer Drug Screen. Data for tumor model Sarcoma M5076 (intraperitoneal) in B6C3F1 mice
Conditions: endpoint: median survival time, higher = longer survival
Procedure: The antitumor activity of compounds was measured in mice bearing transplantable tumors. Survival or tumor size were measured and the results are expressed as the measurement made in the treated group (T) divided by the measurement made in the vehicle treated control group (C). The tumor model used in this assay is Sarcoma M5076 (intraperitoneal) in B6C3F1 mice

[1] = dose: 25.0 mg/kg/injection, schedule: Q04DX004 (ip), vehicle: saline with Tween-80
[2] = dose: 50.0 mg/kg/injection, schedule: Q04DX004 (ip), vehicle: saline with Tween-80
[3] = dose: 100.0 mg/kg/injection, schedule: Q04DX004 (ip), vehicle: saline with Tween-80
[4] = dose: 50.0 mg/kg/injection, schedule: Q04DX004 (ip), vehicle: saline
[5] = dose: 37.5 mg/kg/injection, schedule: Q04DX004 (ip), vehicle: saline with Tween-80
[6] = dose: 75.0 mg/kg/injection, schedule: Q04DX004 (ip), vehicle: saline with Tween-80
[7] = dose: 150.0 mg/kg/injection, schedule: Q04DX004 (ip), vehicle: saline with Tween-80
[8] = dose: 300.0 mg/kg/injection, schedule: Q04DX004 (ip), vehicle: saline with Tween-80
[9] = dose: 125.0 mg/kg/injection, schedule: Q04DX004 (ip), vehicle: saline with Tween-80
[10] = dose: 200.0 mg/kg/injection, schedule: Q04DX004 (ip), vehicle: saline with Tween-80
[11] = dose: 400.0 mg/kg/injection, schedule: Q04DX004 (ip), vehicle: saline with Tween-80
[12] = dose: 800.0 mg/kg/injection, schedule: Q04DX004 (ip), vehicle: saline with Tween-80

Cc1c(O)c(O)c(C)c(CCN)c1O
T/C (dose: 31.0 mg/kg/injection, schedule: Q04DX004 (ip), vehicle: saline with Tween-80): 100 % of control | T/C (dose: 62.0 mg/kg/injection, schedule: Q04DX004 (ip), vehicle: saline with Tween-80): 104 % of control | T/C (dose: 112.0 mg/kg/injection, schedule: Q04DX004 (ip), vehicle: saline with Tween-80): 94 % of control

COc1cccc(-n2cc[n+](C)c2/C=N/O)c1
T/C (dose: 12.5 mg/kg/injection, schedule: Q04DX004 (ip), vehicle: saline with Tween-80): 108 % of control | T/C [1]: 101 % of control | T/C [2]: 108 % of control | T/C [3]: 100 % of control

CC(C)(C)CCC(Br)CBr (configuration not stated)
T/C (dose: 3.12 mg/kg/injection, schedule: Q04DX004 (ip), vehicle: saline): 98 % of control | T/C (dose: 3.12 mg/kg/injection, schedule: Q04DX004 (ip), vehicle: suspension in saline): 95 % of control | T/C (dose: 6.25 mg/kg/injection, schedule: Q04DX004 (ip), vehicle: saline): 102 % of control | T/C (dose: 6.25 mg/kg/injection, schedule: Q04DX004 (ip), vehicle: suspension in saline): 97 % of control | T/C (dose: 12.5 mg/kg/injection, schedule: Q04DX004 (ip), vehicle: saline): 99 % of control | T/C (dose: 12.5 mg/kg/injection, schedule: Q04DX004 (ip), vehicle: suspension in saline): 99 % of control | T/C (dose: 25.0 mg/kg/injection, schedule: Q04DX004 (ip), vehicle: saline): 100 % of control | T/C [4]: 100 % of control | T/C (dose: 50.0 mg/kg/injection, schedule: Q04DX004 (ip), vehicle: suspension in saline): 100 % of control and 106 % of control | T/C (dose: 100.0 mg/kg/injection, schedule: Q04DX004 (ip), vehicle: suspension in saline): 111 % of control | T/C (dose: 200.0 mg/kg/injection, schedule: Q04DX004 (ip), vehicle: suspension in saline): 106 % of control | T/C (dose: 400.0 mg/kg/injection, schedule: Q04DX004 (ip), vehicle: suspension in saline): 93 % of control

N=C1C=CC2C(=Nc3ccccc3[N+]2=O)N1Cc1ccncc1 (configuration not stated)
T/C (dose: 18.75 mg/kg/injection, schedule: Q04DX004 (ip), vehicle: saline with Tween-80): 95 % of control | T/C [5]: 93 % of control | T/C [6]: 91 % of control | T/C [7]: 87 % of control | T/C [8]: 87 % of control

CCCCCCC1C(C#N)C(=O)NC(=O)C1C#N (configuration not stated)
T/C (dose: 40.63 mg/kg/injection, schedule: Q04DX004 (ip), vehicle: Klucel (hydroxypropylcellulose) (HPC)): 95 % of control | T/C (dose: 81.25 mg/kg/injection, schedule: Q04DX004 (ip), vehicle: Klucel (hydroxypropylcellulose) (HPC)): 94 % of control | T/C (dose: 162.5 mg/kg/injection, schedule: Q04DX004 (ip), vehicle: Klucel (hydroxypropylcellulose) (HPC)): 101 % of control | T/C (dose: 325.0 mg/kg/injection, schedule: Q04DX004 (ip), vehicle: Klucel (hydroxypropylcellulose) (HPC)): 92 % of control | T/C (dose: 650.0 mg/kg/injection, schedule: Q04DX004 (ip), vehicle: Klucel (hydroxypropylcellulose) (HPC)): 87 % of control

S=c1sc(-c2ccc(Cl)cc2)nn1CSc1nc2ccccc2o1
T/C [5]: 86 % of control | T/C [8]: 94 % of control

COc1cc(C(CC(C)=O)c2cc3c(cc2OC(C)=O)OCO3)cc(OC)c1OC (configuration not stated) (tested in a mixture with another compound)
T/C (dose: 27.0 mg/kg/injection, schedule: Q04DX004 (ip), vehicle: saline with Tween-80): 100 % of control | T/C (dose: 45.0 mg/kg/injection, schedule: Q04DX004 (ip), vehicle: saline with Tween-80): 101 % of control and 103 % of control | T/C [6]: 111 % of control and 119 % of control | T/C [9]: 119 % of control | T/C (dose: 208.3 mg/kg/injection, schedule: Q04DX004 (ip), vehicle: saline with Tween-80): 124 % of control

CCOP(=S)(OCC)OC(=O)C(C)SSC (configuration not stated) (tested in a mixture with another compound)
T/C [5]: 96 % of control | T/C [6]: 99 % of control | T/C [7]: 88 % of control

N=C1C=CC2C(=Nc3ccccc3[N+]2=O)N1CCO (configuration not stated)
T/C [1]: 91 % of control | T/C [2]: 103 % of control | T/C [3]: 104 % of control | T/C [10]: 100 % of control

Cc1ccc(C2C(C#N)C(=O)NC(=O)C2C#N)cc1 (configuration not stated)
T/C (dose: 50.0 mg/kg/injection, schedule: Q04DX004 (ip), vehicle: Klucel (hydroxypropylcellulose) (HPC)): 99 % of control | T/C (dose: 100.0 mg/kg/injection, schedule: Q04DX004 (ip), vehicle: Klucel (hydroxypropylcellulose) (HPC)): 99 % of control | T/C (dose: 200.0 mg/kg/injection, schedule: Q04DX004 (ip), vehicle: Klucel (hydroxypropylcellulose) (HPC)): 86 % of control

COc1c(C=O)c2c(c(OC)c1OC)-c1ccc(OC)c(=O)cc1[C@@H](NC(C)=O)CC2
T/C (dose: 3.75 mg/kg/injection, schedule: Q04DX004 (ip), vehicle: Klucel (hydroxypropylcellulose) (HPC)): 118 % of control | T/C (dose: 7.5 mg/kg/injection, schedule: Q04DX004 (ip), vehicle: Klucel (hydroxypropylcellulose) (HPC)): 118 % of control

Oc1ccc(/C=N/N=C/c2ccc(O)c(O)c2)cc1O
T/C [2]: 98 % of control | T/C [3]: 95 % of control | T/C [10]: 95 % of control | T/C [11]: 93 % of control | T/C [12]: 107 % of control

Cc1c(O)c2ccccc2c2c1sc(NCCCN(CCO)CCO)[n+]2C
T/C (dose: 7.5 mg/kg/injection, schedule: Q04DX004 (ip), vehicle: saline): 93 % of control | T/C (dose: 15.0 mg/kg/injection, schedule: Q04DX004 (ip), vehicle: saline): 98 % of control | T/C (dose: 30.0 mg/kg/injection, schedule: Q04DX004 (ip), vehicle: saline): 94 % of control

Clc1ccc(CC(Cn2ccnc2)c2ccccc2Cl)cc1 (configuration not stated)
T/C (dose: 15.63 mg/kg/injection, schedule: Q04DX004 (ip), vehicle: saline with Tween-80): 111 % of control | T/C (dose: 31.25 mg/kg/injection, schedule: Q04DX004 (ip), vehicle: saline with Tween-80): 102 % of control | T/C (dose: 62.5 mg/kg/injection, schedule: Q04DX004 (ip), vehicle: saline with Tween-80): 96 % of control | T/C [9]: 87 % of control

COC(=O)[C@@]12OC[C@]34[C@H]([C@@H](O)[C@@H]1O)[C@@]1(C)CC(=O)C(O)=C(C)[C@@H]1C[C@H]3OC(=O)[C@H](OC(=O)/C=C(\C)C(C)C)[C@@H]24
T/C (dose: 0.12 mg/kg/injection, schedule: Q04DX005 (ip), vehicle: saline): 97 % of control and 101 % of control | T/C (dose: 0.13 mg/kg/injection, schedule: Q04DX004 (ip), vehicle: saline): 97 % of control and 112 % of control and 124 % of control | T/C (dose: 0.13 mg/kg/injection, schedule: Q04DX005 (ip), vehicle: saline): 117 % of control and 122 % of control

NCCCNCCCCNC(=O)C(O)NC(=O)CC(O)CCCCN=C(N)N (configuration not stated)
T/C [4]: 117 % of control | T/C (dose: 100.0 mg/kg/injection, schedule: Q04DX004 (ip), vehicle: saline): 115 % of control

Cc1c(C(=N)C(C#N)C#N)c(=N)oc2c1ccc1ccccc12
T/C [2]: 96 % of control | T/C [3]: 96 % of control | T/C [10]: 92 % of control | T/C [11]: 94 % of control | T/C [12]: 93 % of control

COC12[C@@H]3N[C@@H]3CN1C1=C(C(=O)C(NCCSSCCNC3=C(C)C(=O)C4=C(C3=O)C(COC(N)=O)[C@]3(OC)C5N[C@@H]5CN43)=C(C)C1=O)[C@@H]2COC(N)=O (some centres not stated)
T/C (dose: 3.0 mg/kg/injection, schedule: Q04DX004 (ip), vehicle: other): 161 % of control | T/C (dose: 6.0 mg/kg/injection, schedule: Q04DX004 (ip), vehicle: other): 216 % of control | T/C (dose: 12.0 mg/kg/injection, schedule: Q04DX004 (ip), vehicle: other): 91 % of control | T/C (dose: 12.5 mg/kg/injection, schedule: Q04DX004 (ip), vehicle: other): 253 % of control

O=C(Nc1cccc2ccccc12)C1C(=O)C(=O)N(c2cccc3ccccc23)C1=O (configuration not stated)
T/C (dose: 37.5 mg/kg/injection, schedule: Q04DX004 (ip), vehicle: Klucel (hydroxypropylcellulose) (HPC)): 105 % of control | T/C (dose: 75.0 mg/kg/injection, schedule: Q04DX004 (ip), vehicle: Klucel (hydroxypropylcellulose) (HPC)): 104 % of control | T/C (dose: 150.0 mg/kg/injection, schedule: Q04DX004 (ip), vehicle: Klucel (hydroxypropylcellulose) (HPC)): 88 % of control | T/C (dose: 300.0 mg/kg/injection, schedule: Q04DX004 (ip), vehicle: Klucel (hydroxypropylcellulose) (HPC)): 91 % of control

CC(O)CCC(=O)c1ccoc1 (configuration not stated)
T/C (dose: 1.25 mg/kg/injection, schedule: Q03HX012 (ip), vehicle: saline): 105 % of control | T/C (dose: 2.5 mg/kg/injection, schedule: Q03HX012 (ip), vehicle: saline): 95 % of control | T/C (dose: 5.0 mg/kg/injection, schedule: Q03HX012 (ip), vehicle: saline): 88 % of control | T/C (dose: 10.0 mg/kg/injection, schedule: Q03HX012 (ip), vehicle: saline): 100 % of control
